This is an account of results in publication PMC8152814, “The modulatory role of sulfated and non-sulfated small molecule heparan sulfate-glycomimetics in endothelial dysfunction: absolute structural clarification, molecular docking and simulated dynamics, SAR analyses and ADMET studies” (RSC Medicinal Chemistry, 2021).

As usually defined, the half-life is the time needed for the level to fall by half in the phase considered. In general, microsomal CLint refers to the rate of metabolic loss divided by the concentration.

The test system of one series is eNOS. The experiment in a line: eNOS phosphorylation (Western blot) in FFA-stressed cells. The series is classed as cell-based, human. To be noted: averaged % of increase (+) or decrease (−) compared to control (FFA induced oxidatively stressed endothelial cells), n = 3. An excerpt: (§1) The assays focused on the production of nitric oxide (NO) and the upregulation of nitric oxide synthase (eNOS), the production of reactive oxygen species (ROS) and the activity of nicotinamide adenine dinucleotide phosphate (NADPH) oxidase (Table 2). From the hypothesised model of heparan sulfate-glycomimetic activity,[17] the glycomimetics are proposed to attenuate the binding of HGF to the cMET receptor. This disruption to MET-receptor activation is proposed to modulate intracellular phosphorylation leading to an upregulation of eNOS and increased output of extracellular NO. […] Overall, the cross examination of NO output and reduction of ROS was used to determine the therapeutic action of the triaged glycomimetics α-4, R-10, S-10 and β-5, as well as 3 non-sulfated intermediates α-2, α-3 and β-3, on free fatty acid (FFA) induced, oxidatively stressed endothelial cell cultures (Table 2).
(§2) Biological assay and AMDET experimental details […]
(§3) Preparation of FFA-albumin complexes and cell treatments
(§4) To generate the in vitro model of oxidative stress, sodium palmitate was bound to bovine serum albumin (BSA) as outlined by Chavez and Summers,S2 with modifications. Sodium palmitate (FFA) was dissolved in EtOH at 60 °C and diluted 1:100 in M199 media supplemented with 2% fatty acid-free bovine serum albumin (BSA) and incubated for 1 h at 37 °C. HepG2 cells were treated with 1 μmol/L of the synthesized HS-glycomimetics in the presence of palmitate (100 μmol/L) for 3 h or pre-treated with glycomimetics for 12 h followed by 3 h palmitate (100 μmol/L). Control cells were incubated in serum free M199 containing 2% (wt/vol) fatty acid-free BSA. […]
HepG2 wells were lysed in RIPA buffer containing proteinase inhibitors and the total protein was quantified using BCA protein assay kit (Pierce Biotechnology). Proteins (30 μg/well) were denatured and separated by sodium dodecyl sulfate (SDS)-polyacrylamide gel electrophoresis and transferred to polyvinylidene difluoride (PVDF) membranes. Blots were blocked for 1 h in 5% semi-skimmed milk/Tris-Buffered Saline Tween-20 (TBS-T), probed with primary rabbit anti-phospho-protein kinase B (Akt), rabbit anti-Akt (Santa Cruz Biotechnology), rabbit polyclonal anti-phospho-eNOS (Cell Signaling) overnight at 4 °C followed by washing and incubation with the corresponding horse radish peroxidase-labelled secondary antibody for 1 h at room temperature. After washing with TBS-T, membranes were incubated with ECL reagent and visualized (Amersham Pharmacia Biotech). Densitometry analysis using ImageJ© (version 1.32j, NIH) was used to quantify the protein signal.S7 […]
(typically 0.01 M phosphate buffered saline pH 7.4) so that the final DMSO concentration is 1 % and the final test compound concentrations are 1, 3, 10, 30 and 100 µM. The experiment is performed at 37 °C and each concentration is incubated in 7 replicate wells. The plates are incubated for 2 h at 37 °C before the absorbance is measured at 620nm. Nicardipine (pH dependent) and pyrene (pH independent) are included as control compounds. The solubility is estimated from the concentration of test compound that produces an increase in absorbance above vehicle control (1% DMSO in buffer).
In general terms: Immunoblotting shows a protein as a band on a membrane.

A short description of the next series: Chemical stability. The series is classed as physicochemical. An excerpt:
| column: α-4; β-5; R-10; S-10

Another series relates to NADPH oxidase. The experiment in a line: NADPH oxidase activity (lucigenin chemiluminescence) in cell homogenates. The series is classed as cell-based, human. More on the design: concentration or dose not given beside the values. To be noted: averaged % of increase (+) or decrease (−) compared to control (FFA induced oxidatively stressed endothelial cells), n = 3.
Description: as §1, §2, §3, §4
(§5) H2DCFDA, Sigma) for 30 min at 37 °C, and the level of fluorescence was determined (excitation 490 nm; emission 540 nm) using a microplate reader (BioTek).
(§6) The level of NADPH-enhanced superoxide anions (O2•−) in HepG2 homogenates was determined by lucigenin-enhanced chemiluminescence.S4 Following the various treatment conditions, cells were homogenized in a buffer (20 mmol/L H2KPO4 and 1 mmol/L EDTA supplemented with aprotinin, leuprotinin, pepstatin and PMSF). The total protein quantified using the Bicinchoninic acid (BCA) assay (Pierce Biotechnology). To 50 μg of total protein, NADPH (100 μmol/L) was added in a total volume of 500 μL, with lucigenin (5 μmol/L) and was injected automatically. Activity was determined by measuring luminescence over 200 s in a scintillation counter (Lumat LB 9507, Berthold, Germany). Basal values of NADPH oxidase activity were subtracted from the experimental values and expressed as RLU/min/μg protein […]
(§7) In situ quantification of ROS species
(§8) Superoxide dismutase (SOD) and catalase (CAT) activity assays, and in situ detection of vascular ROS content. The activity of the enzymes, SOD and CAT, was determined in cell homogenates using assay kits according to the manufacturer's instructions (Cayman; Cat No 706002 and 707002 respectively). A unit of SOD was defined as the amount of enzyme […]
(§9) Similarly, a unit of CAT was […]
(§10) defined as the amount required to form 1.0 nmol of formaldehyde per min at 25 °C.S5

Another series has as its system nitric oxide (NO). Kind of series: NO release assay (DAF-2) in FFA-stressed cells. The series is classed as cell-based, human. To be noted: averaged % of increase (+) or decrease (−) compared to control (FFA induced oxidatively stressed endothelial cells), n = 3.
Description: as §1, §2, §3
To generate the in vitro model of oxidative stress, sodium palmitate was bound to bovine serum albumin (BSA) as outlined by Chavez and Summers,S2 with modifications. Sodium palmitate (FFA) was dissolved in EtOH at 60 °C and diluted 1:100 in M199 media supplemented with 2% fatty acid-free bovine serum albumin (BSA) and incubated for 1 h at 37 °C. HepG2 cells were treated with 1 μmol/L of the synthesized HS-glycomimetics in the presence of palmitate (100 μmol/L) for 3 h or pre-treated with glycomimetics for 12 h followed by 3 h palmitate (100 μmol/L). Control cells were incubated in serum free M199 containing 2% (wt/vol) fatty acid-free BSA.
NO release assay and Quantification of ROS production
NO release was determined using diaminofluorescein-2 (DAF-2).S3 The cells were washed with PBS and incubated with L-arginine (100 μmol/L in PBS) for 5 min at 37 °C before incubation with DAF-2 (0.1 μmol/L) for 2 min, followed by the calcium ionophore calimycin (A23187, 1 μmol L) for 30 min. L-NAME (100 μmol/L), a nitric oxide inhibitor (NOS), was also added 20 min before the addition of L-arginine in some experiments to determine the involvement of NOS. DAF-2 fluorescence (arbitrary units, AU) was quantified using a microplate reader (BioTek) with excitation and emission wavelengths of 485 nm and 540 nm, respectively. The auto-fluorescence was subtracted from each value. […]
as §5, §6, §7, §8, §9, §10

Series [1] in a line: Microsomal metabolic stability, mouse liver microsomes. Particulars: liver microsomes (pooled), pH 7.4. (In general: Liver microsomes are vesicles of endoplasmic reticulum, rich in cytochrome P450 enzymes.)
Description: MLM assay (controls: diphenhydramine and diazepam). hERG assay (controls: quinidine and dimethylsulfoxide).
Microsomal Metabolic Stability
Pooled liver microsomes (final protein concentration 0.5 mg/mL), 0.1 M phosphate buffer pH
7.4 and test compound (final substrate concentration 3 µM; final DMSO concentration 0.25 %)
are pre-incubated at 37 °C prior to the addition of NADPH (final concentration 1 mM) to initiate
the reaction. The final incubation volume is 50 µL. A minus cofactor control incubation is
included for each compound tested where 0.1 M phosphate buffer pH 7.4 is added instead of
NADPH (minus NADPH). Two control compounds are included with each species. All incubations are performed singularly for each test compound. Each compound is incubated for 0, 5, 15, 30 and 45 min. The control (minus NADPH) is incubated for 45 min. The reactions
are stopped by transferring 20 µL of incubate to 60 µL methanol at the appropriate time points.
The termination plates are centrifuged at 2,500 rpm for 20 min at 4 °C to precipitate the protein.
Following protein precipitation, the sample supernatants are combined in cassettes of up to 4
compounds, internal standard is added and samples analysed using Cyprotex generic
LC-MS/MS conditions. From a plot of ln peak area ratio (compound peak area /internal
standard peak area) against time, the gradient of the line is determined. Subsequently, half-
life and intrinsic clearance are calculated using the equations below:
Elimination rate constant (k) = (- gradient)
Intrinsic clearance (CLint)(µL/min/mg protein) = where V = Incubation volume (µL)/Microsomal protein (mg)
Relevant control compounds are assessed, ensuring intrinsic clearance values fall within the
specified limits (if available).

Each structure is given as a SMILES string.

On to `COC(=O)c1cc(OC[C@@H](COS(=O)(=O)[O-])OS(=O)(=O)[O-])ccc1OCC(COS(=O)(=O)[O-])OS(=O)(=O)[O-].[Na+].[Na+].[Na+].[Na+]` (mixture of isomers) [α-4, sodium 3-(4-((S)-2,3-bis(sulfonatooxy)propoxy)-2-(methoxycarbonyl)phenoxy)propane-1,2-diyl bis(sulfate)], for which the eNOS phosphorylation result in the series with eNOS is given as “+342%”. Also, the Chemical stability entry in “Chemical stability” is reported as “Yes”. Besides, the NADPH oxidase activity in the series with NADPH oxidase is −29%. Moreover, the NO production result with nitric oxide (NO) was “+110%”. In series [1], the half-life at 3 µM worked out at 30.7 h and the microsomal CLint at 3 µM was found to be 0.755 µL/min/mg.
`O=C([O-])c1cc(OC[C@H](COS(=O)(=O)[O-])OS(=O)(=O)[O-])ccc1OCC(COS(=O)(=O)[O-])OS(=O)(=O)[O-].[Na+].[Na+].[Na+].[Na+].[Na+]` (mixture of isomers) [β-5, sodium 5-((R)-2,3-bis(sulfonatooxy)propoxy)-2-(2,3-bis(sulfonatooxy)propoxy)benzoate]: the eNOS phosphorylation result with eNOS is given as “+318%”. Further, the Chemical stability entry in the series “Chemical stability” is recorded as “Yes”. Further, the NADPH oxidase activity with NADPH oxidase is given as −31%. Also, in the series on nitric oxide (NO), the NO production entry is “+62%”. In series [1], this molecule had a half-life at 3 µM of 8.03 h and a microsomal CLint at 3 µM of 2.88 µL/min/mg.
For the molecule `COC(=O)c1cc(OC[C@H](COS(=O)(=O)[O-])OS(=O)(=O)[O-])ccc1OCCCCOS(=O)(=O)[O-].[Na+].[Na+].[Na+]` [Compound R-10, sodium (R)-3-(3-(methoxycarbonyl)-4-(4-(sulfonatooxy)butoxy)phenoxy)propane-1,2-diyl bis(sulfate)], the eNOS phosphorylation entry in the series with eNOS is “+613%”. Moreover, the Chemical stability entry in the series “Chemical stability” is recorded as “Yes”. In addition, in the series on NADPH oxidase, the NADPH oxidase activity was −31%. Moreover, the NO production entry in the series with nitric oxide (NO) is given as “+52%”. In series [1], this molecule registered a half-life at 0.75 h, 3 µM of 57.5 h and an intrinsic clearance (microsomal CLint) at 0.75 h, 3 µM of 0.402 µL/min/mg.
`COC(=O)c1cc(OC[C@@H](COS(=O)(=O)[O-])OS(=O)(=O)[O-])ccc1OCCCCOS(=O)(=O)[O-].[Na+].[Na+].[Na+]` [Compound S-10, sodium (S)-3-(3-(methoxycarbonyl)-4-(4-(sulfonatooxy)butoxy)phenoxy)propane-1,2-diyl bis(sulfate)]: the eNOS phosphorylation entry in the series on eNOS is listed as “+397%”. Moreover, the Chemical stability entry in “Chemical stability” is “Yes”. For the same molecule, the NADPH oxidase activity with NADPH oxidase was −27%. The NO production entry with nitric oxide (NO) is “+63%”. Also, the microsomal CLint at 0.75 h, 3 µM in series [1] turned out to be 0.333 µL/min/mg.
